Test results reported in patent US20200222497A1, “USE OF COMPOSITAE-TYPE CYCLIC PEPTIDE COMPOUND AS CGAS-STING SIGNALLING PATHWAY INHIBITOR” (CHINA PHARMACEUTICAL UNIVERSITY, priority 2017, published 2020).

Tested on: HSV-1 induced IFNβ protein in mouse serum
Experiment: IFNβ protein in serum of HSV-1 infected mice (ELISA)
Type: in vivo
Details: wild mouse, compound by tail vein injection three times, HSV-1 by tail vein, serum collected in 6 hours, FIG. 3
Source text: Influence of the compositae type cyclopeptide compound Astin C (3) prepared in example 1 on expression of IFNβ protein in HSV-1 induced mouse serum.
The experimental principle: Expression of the IFNβ protein in the body is a mark event of innate immunity resisting infection reaction, the expressed IFNβ can activate the signal transduction channel of the interferon receptor (IFNR) to induce expression of cell factors and inflammatory factors such as interferon stimulated genes, and finally, the invading pathogenic microorganisms are eliminated by recruiting NK cells or further activating molecular mechanisms such as adaptive immune response. Therefore, after the DNA virus HSV-1 infects a mouse, the activating condition of the innate anti-infection immune response of the body can be reflected by detecting the expression quantity of IFN-β of mouse serum, so that influence of the compound on the innate anti-infection immune reaction of the body is evaluated.
The experimental method: (1) Establishment of an HSV-1 infected mouse model: A 6-8 week old wild mouse was taken; 100 μL of HSV-1, the titer of which is 1×10^7, was injected into a mouse body by way of tail vein injection; and serum was collected in 6 hours for a follow-up experiment. […]

CCC1NC(=O)C2C(Cl)C(Cl)CN2C(=O)C(CC)NC(=O)CC(c2ccccc2)NC(=O)C(CO)NC1=O (stereo not shown) [Astin C]
HSV-1 induced IFNβ content in the mouse serum: reduce the HSV-1 induced IFNβ content in the mouse serum obviously
